From patent publication US4757012A, “Ascorbic acid intermediates and process enzymes” (Genentech, Inc., priority 1984, dated 1988) come the findings set out here.

SMILES strings stand for the structures.

T1 sequence (P06632 whole entry): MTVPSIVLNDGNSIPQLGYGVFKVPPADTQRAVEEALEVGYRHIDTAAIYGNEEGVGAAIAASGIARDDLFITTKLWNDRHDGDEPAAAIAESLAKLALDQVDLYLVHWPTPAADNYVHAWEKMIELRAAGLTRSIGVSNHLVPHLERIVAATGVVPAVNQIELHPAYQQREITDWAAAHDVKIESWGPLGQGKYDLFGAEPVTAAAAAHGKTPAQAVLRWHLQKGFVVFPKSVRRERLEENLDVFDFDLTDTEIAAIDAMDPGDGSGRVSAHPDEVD

The first test addresses T1, 2,5-DKG reductase (Corynebacterium sp., UniProt P06632).
T1 construct: made in house; host or cells: Corynebacterium sp; ATCC 31090 (natural producer, native enzyme purified from cell paste, not recombinant)
Kind of test: 2,5-DKG reductase kinetic / substrate specificity assay with purified enzyme. Format: biochemical, Corynebacterium sp. ATCC 31090.
Settings: not given
The source says:
The following assay conditions were used to determine kinetic parameters: […]
Take `Nc1ncnc2c1ncn2[C@@H]1O[C@H](COP(=O)(O)OP(=O)(O)O)[C@@H](O)[C@H]1O` [ADP]: the “Alteration of enzyme activity in the presence of the substance” value (shortened to “Alteration of enzyme activity”) is “No alteration of activity”.
`Nc1ncnc2c1ncn2[C@@H]1O[C@H](COP(=O)(O)OP(=O)(O)OP(=O)(O)O)[C@@H](O)[C@H]1O` [ATP]: the “Alteration of enzyme activity” value is recorded as “No alteration of activity”.
With `[Ca+2]` [Ca^++], the “Alteration of enzyme activity” value is “No alteration of activity”.
The same measure, in the same setting: to `O=C(O)CN(CCN(CC(=O)O)CC(=O)O)CC(=O)O` [EDTA] belongs “No alteration of activity”; to `[Mn+2]` [MN^++], “No alteration of activity”; to `[Mg+2]` [Mg^++], “No alteration of activity”.
With `[Zn+2]` [Zn^++], the “Alteration of enzyme activity” value is recorded as “No alteration of activity”.
`N[C@@H](CS)C(=O)O` [cysteine]: the “Alteration of enzyme activity” value is “No alteration of activity”.

The test is the same for the next values; noted with them: substrate specificity and cofactor requirements.
In the case of `O=C(O)C(=O)[C@@H](O)[C@H](O)[C@H](O)CO` [2-KDG, 2-keto-D-gluconic acid], the “Activity of the enzyme with the substance as substrate or cofactor” value (“Activity of the enzyme” for short) is on record as “No activity”.
Consider `O=C(O)C(=O)[C@@H](O)[C@H](O)[C@@H](O)CO` [2-KLG, 2-keto-L-gulonic acid], for which the “Activity of the enzyme” value is “No activity”.
Turning to `O=C(CO)[C@@H](O)[C@H](O)[C@@H](O)C(=O)O` [5-KDG, 5-keto-D-gluconic acid], the “Activity of the enzyme” value is recorded as “No activity”.
`O=C(O)[C@H](O)[C@@H](O)[C@H](O)[C@H](O)CO` [D-gluconic acid]: the “Activity of the enzyme” value was “No activity”.
For `NC(=O)C1=CN([C@@H]2O[C@H](COP(=O)(O)OP(=O)(O)OC[C@H]3O[C@@H](n4cnc5c(N)ncnc54)[C@H](O)[C@@H]3O)[C@@H](O)[C@H]2O)C=CC1` [NADH], the “Activity of the enzyme” value is listed as “No activity”.
